Activity calls are given as the source filed them.
Columns and labels:
[1] = target: T1, Epstein-Barr nuclear antigen 1 (Epstein-Barr virus (strain B95-8) (HHV-4) (Human herpesvirus 4), UniProt P03211); assay: EBNA-1 inhibitors, dose response, biochemical, fluorescence polarization, 1536-well (AID 2381); parameters: species or system human gammaherpesvirus 4;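 also: fluorescence polarization of a Cy5 DNA probe bound by EBNA-1 protein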
T1 sequence (P03211 whole entry): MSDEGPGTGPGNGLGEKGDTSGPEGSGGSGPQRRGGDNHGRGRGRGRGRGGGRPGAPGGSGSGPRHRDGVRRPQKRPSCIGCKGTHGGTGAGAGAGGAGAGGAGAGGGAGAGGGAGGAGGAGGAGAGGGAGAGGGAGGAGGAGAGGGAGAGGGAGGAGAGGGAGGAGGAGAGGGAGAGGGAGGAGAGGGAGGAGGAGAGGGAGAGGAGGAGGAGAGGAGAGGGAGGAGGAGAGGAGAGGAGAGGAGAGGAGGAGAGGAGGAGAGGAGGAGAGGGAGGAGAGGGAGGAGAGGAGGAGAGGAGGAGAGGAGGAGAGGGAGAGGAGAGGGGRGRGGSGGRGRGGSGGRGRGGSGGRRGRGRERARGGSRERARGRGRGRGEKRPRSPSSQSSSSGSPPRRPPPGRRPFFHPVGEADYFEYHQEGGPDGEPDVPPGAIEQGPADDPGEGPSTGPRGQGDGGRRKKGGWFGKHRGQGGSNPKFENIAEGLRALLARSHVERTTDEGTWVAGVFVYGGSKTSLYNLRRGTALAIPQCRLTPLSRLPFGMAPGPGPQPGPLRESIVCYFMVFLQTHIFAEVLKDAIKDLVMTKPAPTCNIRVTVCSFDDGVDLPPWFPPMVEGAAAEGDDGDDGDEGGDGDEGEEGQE

[2] = cytotoxicity in HEK-293T cells, dose response, cytotoxicity control for BCR NF-kB inhibitor project, luminescence, B-cell screen hits (AID 489021); assay type: functional, cell-based;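 also: HEK-293T cells carrying an NF-kB luciferase reporter; cells exposed to compound for about 14 hours before viability readout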
[3] = target: T2, Lytic switch protein BZLF1 (Epstein-Barr virus (strain B95-8) (HHV-4) (Human herpesvirus 4), UniProt P03206); assay: EBV ZTA inhibitors, dose response, counter-screen for EBNA-1 inhibitor project, biochemical, fluorescence polarization, Epstein-Barr virus, 1536-well (AID 2377); parameters: species or system human gammaherpesvirus 4;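 also: fluorescence polarization of Cy5-labelled ZRE DNA probe bound by purified Zta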
T2 sequence (P03206 whole entry): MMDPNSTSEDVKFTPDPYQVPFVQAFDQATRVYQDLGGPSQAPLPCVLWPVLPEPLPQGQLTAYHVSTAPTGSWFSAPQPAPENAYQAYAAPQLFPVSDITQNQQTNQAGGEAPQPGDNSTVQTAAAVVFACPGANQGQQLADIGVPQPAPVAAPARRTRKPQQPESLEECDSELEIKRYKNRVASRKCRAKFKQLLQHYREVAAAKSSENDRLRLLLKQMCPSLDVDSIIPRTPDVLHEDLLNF

[4] = target: Glucose-6-phosphate 1-dehydrogenase (Homo sapiens, UniProt P11413); assay: human G6PD enzyme inhibitors, dose response, selectivity assay for P. falciparum G6PD inhibitor project, biochemical, fluorescence (AID 504792); assay type: functional
Chain of Glucose-6-phosphate 1-dehydrogenase (P11413 whole entry): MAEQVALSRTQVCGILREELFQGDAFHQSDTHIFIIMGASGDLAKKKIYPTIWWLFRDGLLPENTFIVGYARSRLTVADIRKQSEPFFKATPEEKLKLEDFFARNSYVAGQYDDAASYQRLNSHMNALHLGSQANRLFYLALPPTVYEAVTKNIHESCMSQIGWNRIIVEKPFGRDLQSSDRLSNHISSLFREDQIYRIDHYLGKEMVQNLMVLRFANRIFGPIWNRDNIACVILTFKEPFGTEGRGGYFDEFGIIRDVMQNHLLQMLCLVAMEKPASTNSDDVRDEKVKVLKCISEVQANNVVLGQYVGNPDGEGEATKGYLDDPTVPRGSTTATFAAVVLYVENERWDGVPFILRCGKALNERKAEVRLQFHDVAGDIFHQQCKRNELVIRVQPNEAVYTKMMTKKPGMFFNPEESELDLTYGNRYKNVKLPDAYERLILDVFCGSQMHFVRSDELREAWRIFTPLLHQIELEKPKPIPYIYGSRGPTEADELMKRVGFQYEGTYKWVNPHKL

[5] = target: DNA dC->dU-editing enzyme APOBEC-3G (Homo sapiens, UniProt Q9HC16); assay: Dose Response confirmation of small molecule APOBEC3G DNA Deaminase Inhibitors via a fluorescence-based single-stranded DNA deaminase assay. [Related pubchem assays (depositor defined):AID493012, AID493028]; assay type: functional
Chain of DNA dC->dU-editing enzyme APOBEC-3G (Q9HC16 whole entry): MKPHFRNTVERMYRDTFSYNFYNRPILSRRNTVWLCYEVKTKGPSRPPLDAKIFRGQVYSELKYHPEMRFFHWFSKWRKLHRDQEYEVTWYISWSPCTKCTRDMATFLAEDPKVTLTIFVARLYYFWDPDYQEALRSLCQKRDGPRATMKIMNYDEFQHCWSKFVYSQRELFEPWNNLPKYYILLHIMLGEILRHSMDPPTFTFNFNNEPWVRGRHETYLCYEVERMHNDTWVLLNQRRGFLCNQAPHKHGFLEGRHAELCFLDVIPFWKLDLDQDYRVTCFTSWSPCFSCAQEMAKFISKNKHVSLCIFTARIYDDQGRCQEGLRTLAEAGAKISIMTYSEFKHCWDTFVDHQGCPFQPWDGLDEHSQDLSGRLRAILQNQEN

[6] = target: T3, SUMO-activating enzyme (Homo sapiens, UniProt Q9UBT2); assay: SUMOylation inhibitor hit validation, confirmation, SUMOylation inhibitor project, biochemical, AlphaScreen (AID 2018); assay type: functional
T3 sequence (Q9UBE0 whole entry): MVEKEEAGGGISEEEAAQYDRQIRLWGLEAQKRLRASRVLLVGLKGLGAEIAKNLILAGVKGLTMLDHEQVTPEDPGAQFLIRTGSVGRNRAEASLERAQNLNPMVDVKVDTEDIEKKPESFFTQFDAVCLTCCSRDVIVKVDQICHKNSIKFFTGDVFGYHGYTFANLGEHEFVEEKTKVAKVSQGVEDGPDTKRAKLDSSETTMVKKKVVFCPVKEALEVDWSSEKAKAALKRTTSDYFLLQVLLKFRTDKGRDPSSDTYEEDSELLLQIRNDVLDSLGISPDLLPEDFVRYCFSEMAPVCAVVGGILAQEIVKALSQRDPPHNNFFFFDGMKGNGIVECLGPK
T3 sequence (Q9UBT2 whole entry): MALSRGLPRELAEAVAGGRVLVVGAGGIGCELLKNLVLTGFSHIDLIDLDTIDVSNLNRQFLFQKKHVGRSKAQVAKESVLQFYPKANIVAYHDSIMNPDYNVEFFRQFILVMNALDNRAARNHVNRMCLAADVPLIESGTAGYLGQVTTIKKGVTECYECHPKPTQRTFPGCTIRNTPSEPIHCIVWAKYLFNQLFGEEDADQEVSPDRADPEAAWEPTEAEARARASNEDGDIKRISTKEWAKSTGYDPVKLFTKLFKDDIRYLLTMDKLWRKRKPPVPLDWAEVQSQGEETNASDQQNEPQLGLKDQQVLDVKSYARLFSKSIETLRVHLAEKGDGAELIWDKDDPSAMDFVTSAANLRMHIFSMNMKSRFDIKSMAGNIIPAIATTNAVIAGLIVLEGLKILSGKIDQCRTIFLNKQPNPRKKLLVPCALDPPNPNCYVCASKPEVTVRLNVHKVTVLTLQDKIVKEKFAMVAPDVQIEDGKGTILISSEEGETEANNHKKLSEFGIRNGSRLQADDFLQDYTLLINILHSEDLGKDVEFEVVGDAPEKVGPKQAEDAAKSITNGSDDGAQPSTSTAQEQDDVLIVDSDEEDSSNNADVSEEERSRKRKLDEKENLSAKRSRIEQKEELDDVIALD

[7] = target: T3, SUMO-activating enzyme; assay: inhibitors of in vitro SUMOylation cascade, primary screen, biochemical, HTRF, uHTS (AID 2006); assay type: protein-complex assay
[8] = target: X-box-binding protein 1 (Homo sapiens, UniProt P17861); assay type: functional, Cricetulus griseus;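 also: confirmatory dose-response counter-screen serving a CHOP assay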
Chain of X-box-binding protein 1 (P17861 whole entry): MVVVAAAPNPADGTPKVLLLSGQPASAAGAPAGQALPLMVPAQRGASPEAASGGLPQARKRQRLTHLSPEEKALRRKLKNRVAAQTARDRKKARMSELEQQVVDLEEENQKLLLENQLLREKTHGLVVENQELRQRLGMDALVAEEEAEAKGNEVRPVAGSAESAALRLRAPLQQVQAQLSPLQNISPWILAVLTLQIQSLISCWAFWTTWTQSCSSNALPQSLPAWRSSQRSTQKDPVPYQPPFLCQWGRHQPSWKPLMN

[9] = target: Cytochrome P450 3A4 (Homo sapiens, UniProt P08684); settings: Potency;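 also: confirmatory qHTS run detecting inhibitors and substrates of CYP3A4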
Chain of Cytochrome P450 3A4 (P08684 whole entry): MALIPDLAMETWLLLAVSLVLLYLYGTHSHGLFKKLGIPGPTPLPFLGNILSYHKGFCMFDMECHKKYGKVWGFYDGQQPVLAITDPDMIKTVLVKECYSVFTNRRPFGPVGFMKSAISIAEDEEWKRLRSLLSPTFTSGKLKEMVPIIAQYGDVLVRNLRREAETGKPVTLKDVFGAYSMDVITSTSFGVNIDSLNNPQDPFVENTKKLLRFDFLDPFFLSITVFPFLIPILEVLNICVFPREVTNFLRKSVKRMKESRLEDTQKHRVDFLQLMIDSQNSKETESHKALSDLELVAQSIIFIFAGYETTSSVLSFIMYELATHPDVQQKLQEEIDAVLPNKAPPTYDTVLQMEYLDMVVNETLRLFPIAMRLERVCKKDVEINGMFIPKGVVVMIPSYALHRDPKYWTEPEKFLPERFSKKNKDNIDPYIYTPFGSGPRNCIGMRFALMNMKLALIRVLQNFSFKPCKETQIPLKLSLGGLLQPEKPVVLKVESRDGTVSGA

[10] = target: Cytochrome P450 2C9 (Homo sapiens, UniProt P11712); settings: Potency
Chain of Cytochrome P450 2C9 (P11712 whole entry): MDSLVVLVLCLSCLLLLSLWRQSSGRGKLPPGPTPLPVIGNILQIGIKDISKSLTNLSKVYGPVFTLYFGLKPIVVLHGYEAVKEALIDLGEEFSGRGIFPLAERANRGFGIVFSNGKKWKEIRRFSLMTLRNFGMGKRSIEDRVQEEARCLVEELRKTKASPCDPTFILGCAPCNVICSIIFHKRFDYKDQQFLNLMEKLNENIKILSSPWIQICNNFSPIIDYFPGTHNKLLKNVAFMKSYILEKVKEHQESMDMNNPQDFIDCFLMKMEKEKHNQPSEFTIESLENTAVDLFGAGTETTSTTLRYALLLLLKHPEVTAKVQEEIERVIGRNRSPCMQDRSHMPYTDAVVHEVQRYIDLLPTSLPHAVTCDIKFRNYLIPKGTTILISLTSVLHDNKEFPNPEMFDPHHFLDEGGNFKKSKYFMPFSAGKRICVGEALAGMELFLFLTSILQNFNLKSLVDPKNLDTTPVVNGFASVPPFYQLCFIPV

[11] = THP-1 cell cytotoxicity, dose response, cytotoxicity control for Vif-APOBEC3G degradation inhibitor project, THP-1 cells (AID 1117359); assay type: functional; settings: Human immunodeficiency virus 1, THP-1
[12] = target: T4, Glutathione-S-transferase (Schistosoma japonicum, UniProt Q26513); assay: biotin-GST/anti-GST TR-FRET signal inhibitors, dose response, artefact control for Vif-APOBEC3G degradation inhibitor project, biochemical (AID 1117362); assay type: functional
T4 sequence (Q26513 whole entry): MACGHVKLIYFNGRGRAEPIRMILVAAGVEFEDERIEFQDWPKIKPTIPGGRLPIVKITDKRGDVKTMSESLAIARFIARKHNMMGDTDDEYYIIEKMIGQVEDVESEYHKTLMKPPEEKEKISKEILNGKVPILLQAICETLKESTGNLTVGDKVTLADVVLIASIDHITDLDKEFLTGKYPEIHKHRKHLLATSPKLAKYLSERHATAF

[13] = target: T5, Protein Tat (Human immunodeficiency virus type 1 group M subtype B (isolate HXB2)(HIV-1), UniProt P04608); assay type: functional;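 also: tat binding to TAR RNA read out by fluorescence polarization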
T5 sequence (P04608 whole entry): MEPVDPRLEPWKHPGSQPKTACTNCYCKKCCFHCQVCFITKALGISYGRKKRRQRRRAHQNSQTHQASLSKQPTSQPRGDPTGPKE

[14] = target: Estrogen receptor beta (Homo sapiens, UniProt Q92731); assay: ERβ–SRC-3 coactivator interaction inhibitors, confirmation, orthogonal assay, biochemical, ELISA, streptavidin-HRP readout (AID 1060)
Chain of Estrogen receptor beta (Q92731 whole entry): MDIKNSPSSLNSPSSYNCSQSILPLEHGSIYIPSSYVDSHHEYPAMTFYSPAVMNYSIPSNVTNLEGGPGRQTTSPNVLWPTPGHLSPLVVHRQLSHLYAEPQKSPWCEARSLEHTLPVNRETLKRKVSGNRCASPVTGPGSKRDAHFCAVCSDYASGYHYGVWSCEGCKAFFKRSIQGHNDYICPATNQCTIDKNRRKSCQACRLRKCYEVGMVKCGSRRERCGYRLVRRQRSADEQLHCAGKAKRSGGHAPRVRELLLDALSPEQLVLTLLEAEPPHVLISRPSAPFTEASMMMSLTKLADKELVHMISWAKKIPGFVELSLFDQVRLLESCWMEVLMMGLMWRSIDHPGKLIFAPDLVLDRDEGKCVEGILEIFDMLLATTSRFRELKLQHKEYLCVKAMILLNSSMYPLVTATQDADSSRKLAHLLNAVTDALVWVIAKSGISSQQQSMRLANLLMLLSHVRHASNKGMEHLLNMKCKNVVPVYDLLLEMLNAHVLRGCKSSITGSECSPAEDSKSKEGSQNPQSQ

[15] = target: T6, Bcl-2-like protein 10 (Homo sapiens, UniProt Q9HD36); assay: displacers of TR3 peptide from Bcl-B, primary screen, selectivity assay for Bfl-1 inhibitor project, biochemical, fluorescence polarization, FITC-TR3 peptide (AID 748);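 also: fluorescence polarization from a fluorescein-labelled TR3 peptide binding purified Bcl-B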
T6 sequence (Q9HD36 whole entry): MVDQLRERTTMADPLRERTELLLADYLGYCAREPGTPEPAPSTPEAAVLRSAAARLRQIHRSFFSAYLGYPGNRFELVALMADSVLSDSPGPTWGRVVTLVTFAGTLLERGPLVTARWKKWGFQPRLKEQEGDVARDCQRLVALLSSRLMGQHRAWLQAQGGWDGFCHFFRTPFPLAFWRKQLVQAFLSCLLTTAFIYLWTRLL

## Cn1c(=O)n(C)c2cc(/C=C3/NC(=O)N(Cc4ccccc4)C3=O)ccc21
[1]
  IC50: 11.2 µM (not active)
[2]
  IC50: > 80 µM (inactive)
[3]
  IC50: > 111 µM (not active)

## CCC1(C)CC(C(N)=S)CCO1 (stereo unspecified)
[4]
  IC50: > 80 µM (inactive)
[5]
  IC50: 33.2 µM (active)

## O=[N+]([O-])c1ccccc1/C=C/C=N/n1c(S)nnc1-c1cc(-c2ccccc2)[nH]n1
[6]
  IC50: 10.3 µM (active)
[7]
  IC50: 26.8 µM (active)

## CCOC(=O)c1c(C)[nH]c(C(=O)COC(=O)c2[nH]c(C)c(C(C)=O)c2C)c1C
[8]
  Absolute IC50 (XBP1): 10 µM

## CC1CCC2C(=O)N3C(CCC(C)[C@H]3c3cccc(N4CCCC4=O)c3)C(=O)N2C1c1cccc(N2CCCC2=O)c1 (stereo partly specified)
[9]
  AC50: 2.51 µM (inconclusive)
[10]
  AC50: 2.51 µM (inconclusive)

## CN(C)c1ccc(NC(=O)Cn2cc3c(n2)CCCC3)cc1
[11]
  CC50: 22.2 µM (active)
[12]
  IC50: 22.1 µM (active)
[13]
  IC50: > 100 µM (inconclusive)
[14]
  IC50: 0.326 µM (not active)
[15]
  IC50: 21.8 µM (active)

## COc1ccccc1C(=O)Oc1ccc(C(C)C)cc1
[8]
  Absolute IC50 (XBP1): 10 µM

Source: ChEMBL document CHEMBL1201862, “PubChem BioAssay data set” (2004)
